Results as given in article PMC5120310, “In Silico Exploration for Novel Type-I Inhibitors of Tie-2/TEK: The Performance of Different Selection Strategy in Selecting Virtual Screening Candidates” (Scientific Reports, 2016).
Like-named read-outs stand apart in the source and are kept apart here.

Experiments:
[1] = target: T1, recombinant human Tie-2 protein (Homo sapiens, UniProt Q02763); assay: Z′-Lyte FRET enzymatic activity assay of Tie-2 kinase; format: biochemical; conditions: for Inhibition (%) @10 μg/ml / inhibition at 10 µg/mL: 10 μg/mL preliminary screening, Table S1; for Tie-2 inhibitory activity in words (active / inactive): VS candidates of Strategy 1, preliminary screening at 10 μg/mL; for inhibition at 5 µg/mL: read-out: Kinase Inhibition (%) at 5 μg/mL (± SD)
T1 construct: purchased Thermo Fisher Scientific Inc. PV3628
Method: In order to assess the biological inhibitory activity of the VS compounds, Z’-Lyte enzymatic activity assay based on FRET (Fluorescence Resonance Energy Transfer) technology was developed as described above. […] At first, all the compounds obtained from both filtering strategies were preliminary screened for their ability to inhibit Tie-2 kinase activity at the concentration of 10 μg/mL.
The Tie-2 kinase inhibitor (CAS#: 948557-43-5, purity ≥ 97%) was purchased from Merck Calbiochem (Darmstadt, Germany) and used as a positive control inhibitor in bioassays[40]. […] All the purchased screening compounds were firstly dissolved in dimethyl sulfoxide (DMSO) at a stock concentration of 5 mg/ml. The final working concentration of DMSO is less than 1%.
Compounds were tested for their ability to inhibit Tie-2 kinase activity using Z′-Lyte® kinase assay kit (ser/thr 5 peptide) with NUNC 384-well plate. In the first step, the test compounds and ATP solution were firstly prepared at 4 × desired concentration. The mixture of recombinant human Tie-2 protein and non-phosphorylated peptide at 2 × desired concentration was prepared in kinase reaction buffer A consisting of 50 mM HEPES (pH 7.5), 0.01% BRIJ-35, 10 mM MgCl2, 4 mM MnCl2, 1 mM EGTA and 2 mM DTT. Reactions were then carried out in a solution containing 2.5 μL test compounds, 5 μL Tie-2/Tyr 05 peptide mixture (10 ng Tie-2 and 2 μM Tyr 05 peptide) and 2.5 μL ATP (100 μM). Then, the assay plate was shaken for 30 seconds on a plate shaker, and incubated for 1 hour at room temperature (20~25 °C). After sufficient kinase reactions, 5 μL development reagent A was added to each well, and the plate was incubated for another hour. Finally, 5 μL stop reagent was added to terminate the reactions, and the coumarin and fluorescein emission signals (excitation: 400 nm; emission: 445 and 520 nm, respectively) were measured on a fluorescence plate reader (BioTek Synergy 4).

Tie-2 = test system: Tie-2; parameters: method as in PMID 17618114; conditions: tool inhibitor; read-out: IC50 against Tie-2, previously reported; cited from earlier work
[2] = Z′-Lyte assay, 100 μM ATP, n ≥ 2 per concentration, read-out: IC50 (half-maximal inhibitory concentration), Tie-2 kinase
[3] = in the dose-response figure, read-out: IC50 (dose-dependent inhibitory effect), Tie-2 kinase (converted)

T1 sequence (Q02763 23-1124): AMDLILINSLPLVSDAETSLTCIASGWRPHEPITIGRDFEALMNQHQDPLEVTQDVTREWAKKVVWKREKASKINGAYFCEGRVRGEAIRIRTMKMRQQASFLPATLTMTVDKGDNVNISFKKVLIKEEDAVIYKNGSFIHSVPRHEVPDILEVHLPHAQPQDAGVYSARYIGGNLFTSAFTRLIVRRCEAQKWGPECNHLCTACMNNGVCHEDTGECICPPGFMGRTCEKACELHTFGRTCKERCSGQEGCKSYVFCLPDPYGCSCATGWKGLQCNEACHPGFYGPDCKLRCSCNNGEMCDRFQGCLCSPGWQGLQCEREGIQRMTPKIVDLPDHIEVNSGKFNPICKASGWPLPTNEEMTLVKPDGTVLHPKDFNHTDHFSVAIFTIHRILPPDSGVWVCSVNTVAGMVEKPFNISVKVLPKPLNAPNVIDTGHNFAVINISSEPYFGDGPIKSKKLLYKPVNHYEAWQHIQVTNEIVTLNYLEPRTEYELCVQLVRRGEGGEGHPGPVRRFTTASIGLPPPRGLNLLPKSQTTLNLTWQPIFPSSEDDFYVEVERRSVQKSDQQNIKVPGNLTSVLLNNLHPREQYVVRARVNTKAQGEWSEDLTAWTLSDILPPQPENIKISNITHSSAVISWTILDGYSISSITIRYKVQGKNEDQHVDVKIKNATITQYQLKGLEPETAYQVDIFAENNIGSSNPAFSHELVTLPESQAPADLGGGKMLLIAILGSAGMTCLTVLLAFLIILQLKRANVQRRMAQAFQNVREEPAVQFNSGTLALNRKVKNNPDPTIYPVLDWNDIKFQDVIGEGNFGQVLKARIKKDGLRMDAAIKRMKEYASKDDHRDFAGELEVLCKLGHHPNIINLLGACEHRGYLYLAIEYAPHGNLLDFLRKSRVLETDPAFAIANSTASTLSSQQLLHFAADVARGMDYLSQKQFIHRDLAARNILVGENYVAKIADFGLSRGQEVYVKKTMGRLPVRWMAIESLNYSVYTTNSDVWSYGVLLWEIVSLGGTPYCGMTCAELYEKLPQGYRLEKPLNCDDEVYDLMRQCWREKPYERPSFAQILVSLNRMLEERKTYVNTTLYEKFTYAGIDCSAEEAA

Inhibition (%) @10 μg/ml [1] [%] | IC50 [1, 2] [µM] | SMILES | other results
95.2±1.58 | – | COc1ccc2cc(-c3nc(-c4ccc([S+](C)[O-])cc4)[nH]c3-c3ccncc3)ccc2c1 (centres unmarked) [Tie-2 inhibitor, reference compound] | Kinase Inhibition (%) at 5 μg/mL (± SD) ([1]; 5 μg/mL, n ≥ 2): 93.01 ± 1.02%; IC50 (Tie-2): 0.25 µM
55.24±1.85 | – | Cc1ccc(C(=O)CSc2nc3ccccc3c(=O)n2N)o1 [TP-C2-43] | –
– | 13.8 | COc1ccc(C(=O)NC(=S)Nc2ccc(NC(=O)c3ccccc3)cc2)cc1[N+](=O)[O-] [TP-C3-15] | inhibition at 5 µg/mL ([1]; 5 μg/mL, n ≥ 2): 35.1 ± 0.63%; fold decline in activity compared to TP-C2-9 ([1]; from IC50 values): ~ 10 fold
– | 48.6 | Cc1cc(NC(=S)NC(=O)c2ccc(C)c([N+](=O)[O-])c2)ccc1NC(=O)c1ccccc1 [TP-C3-26] | inhibition at 5 µg/mL ([1]; 5 μg/mL, n ≥ 2): 23.11 ± 0.13%
– | 1.64 | CCc1ccc(C(=O)NC(=S)Nc2ccc(NC(=O)c3cccc(Cl)c3)cc2)cc1 [TP-C3-43] | inhibition at 5 µg/mL ([1]; 5 μg/mL, n ≥ 2): 77.74 ± 0.42%
66.52±7.26 | – | O=C(NCc1n[nH]c(=O)c2ccccc12)c1cc2ccccc2oc1=O [TP-C2-32] | –
77.63±0.16 | – | CN1C(=O)c2ccc(C(=O)NCc3ccccn3)cc2C1=O [TP-C2-51] | –
75.1±0.83 | – | CC(=O)Nc1cccc(NC(=O)c2cc(-c3ccncc3)nc3ccc(Br)cc23)c1 [TP-C2-39] | –
-113.04±17.27 | – | CN(CCc1ccccn1)S(=O)(=O)c1ccc2c3c(cccc13)C(=O)N2 [TP-C2-25] | –
95.39±0.98 | 4.69 ± 0.37 | CC1=C(C(=O)Nc2ccc(C)cc2C)C(c2ccc(OCc3ccccc3)cc2)NC(=S)N1 (racemic) [TP-C2-40] | –
63.31±0.29 | – | CC(=O)c1cccc(NC(=O)CSc2nnc(CSCc3ccccc3F)n2C)c1 [TP-C2-49] | –
– | 28.2 | Cc1cc(NC(=S)NC(=O)c2ccc(Cl)c(Cl)c2)ccc1NC(=O)c1ccccc1 [TP-C3-29] | inhibition at 5 µg/mL ([1]; 5 μg/mL, n ≥ 2): 57.95 ± 0.29%
50.65±0.04 | – | CC(=O)c1cccc(NC(=O)CSc2nnc(-c3ccccc3)c(=O)[nH]2)c1 [TP-C2-58] | –
43.96±2.34 | – | c1ccc(-c2cc(-c3ccc4c(c3)OCCO4)c(-c3ccccc3)nn2)cc1 [TP-C2-48] | –
90.36±1.3 | 6.12 ± 0.81 | NC(=O)c1ccccc1NC(=O)CSc1nc(O)c(-c2ccccc2)c(=O)[nH]1 [TP-C2-41] | –
– | 2.82 | Cc1cccc(C(=O)Nc2ccc(NC(=S)NC(=O)c3ccccc3)cc2)c1 [TP-C3-3] | inhibition at 5 µg/mL ([1]; 5 μg/mL, n ≥ 2): 67.3 ± 0.78%
83.25±0.08 | 17.5 ± 1.16 | Cc1ccc2nc(-c3ccc(NC(=S)NC(=O)COc4ccccc4C)cc3)sc2c1 [TP-C2-24] | –
– | 19.8 | COc1ccc(Cl)cc1C(=O)NC(=S)Nc1ccc(NC(=O)c2ccccc2)c(C)c1 [TP-C3-27] | inhibition at 5 µg/mL ([1]; 5 μg/mL, n ≥ 2): 47.9 ± 0.05%
– | 2.74 | COc1cc(NC(=S)NC(=O)c2ccc(C)cc2C)ccc1NC(=O)c1ccccc1Cl [TP-C3-21] | inhibition at 5 µg/mL ([1]; 5 μg/mL, n ≥ 2): 71.19 ± 0.29%
– | 1.85 | O=C(NC(=S)Nc1ccc(NC(=O)c2ccc(Cl)cc2Cl)cc1)c1ccccc1 [TP-C3-1] | inhibition at 5 µg/mL ([1]; 5 μg/mL, n ≥ 2): 63 ± 0.86%
81.27±3.01 | 8.21 ± 0.46 | O=C(Nc1ccccc1C(=O)NCc1cccnc1)c1cccc(F)c1 [TP-C2-55] | –

The next lines start with the compound.

SMILES | Inhibition (%) @10 μg/ml [1] [%] | IC50 [1, 2] [µM] | other results
CCOc1ccc(NC(=O)C(C)Sc2nc3ccccc3c(=O)n2-c2cccc(C)c2)cc1 (racemic) [TP-C1-36] | 3.87±1.8 | – | –
O=C(NN=Cc1ccc(N2N=C(c3ccccc3)CC2c2ccccc2)cc1)c1ccncc1 (racemic) [TP-C1-6] | 16.08±16.2 | – | Tie-2 inhibitory activity in words (active / inactive) [1]: inactive
O=C(CSc1nnc(-c2cccnc2)n1-c1ccccc1)c1ccc(F)cc1 [TP-C1-28] | 71.3±0.7 | 43.6 ± 2.32 | –
CCCOc1ccc(N2C(=O)CC(N(CCc3ccc(OC)cc3)C(=O)c3cccc(F)c3)C2=O)cc1 (centres unmarked) [TP-C2-5] | 83.65±2.57 | 13.8 ± 1.02 | –
O=C1c2ccccc2C(=O)N1CCc1nn2c(-c3cccnc3)nnc2s1 [TP-C1-52] | – | 15.3 ± 0.68 | inhibition at 10 µg/mL [1]: 101 ± 2.04%; fold decreased activity compared to TP-C1-17 and TP-C1-47 ([1]; from IC50 values): ~ 3 fold; IC50 [1, 3]: 15.3 µM
CCOc1ccc(CN(CCc2ccc3c(c2)OCO3)Cc2ccc(C(F)(F)F)cc2)cc1 [TP-C2-6] | 49.69±0.95 | – | –
Cc1cc(C(=O)c2ccccc2)ccc1OC(=O)CN1C(=O)c2ccccc2C1=O [TP-C1-42] | -27.08±4.67 | – | –
COc1ccccc1C(=O)Nc1ccc(Oc2ccc3c(c2)C(=O)NC3=O)cc1 [TP-C1-51] | 54.56±1.99 | – | –
Cc1ccccc1OCC(=O)OCC(=O)c1ccc(OCc2ccccc2)cc1 [TP-C2-20] | 36.45±0.94 | – | –
CCc1cc2c(-c3ccccc3)cc(=O)oc2cc1OCC(=O)c1ccc(F)cc1 [TP-C2-18] | 43.81±7.48 | – | –
O=C(CN(c1ccc2c(c1)OCCO2)S(=O)(=O)c1ccccc1)Nc1cccnc1 [TP-C1-38] | 12.5±2.86 | – | –
CCOc1cc(C2C(C(=O)OCCc3ccccc3)=C(C)NC3=C2C(=O)CCC3)ccc1O (centres unmarked) [TP-C2-4] | 69.77±2.75 | – | –
CCOc1ccc2c(c1)-c1c(ssc1=S)C(C)(C)N2C(=O)CSc1nc(C)cc(O)n1 [TP-C1-17] | – | 4.45 ± 0.36 | inhibition at 10 µg/mL [1]: 89.5 ± 2.93%; IC50 [1, 3]: 4.45 µM
O=C(CN(Cc1ccc(F)cc1)S(=O)(=O)c1ccc(Cl)cc1)NCc1ccccn1 [TP-C1-27] | 4.93±5.56 | – | –
COc1cc(C=NN=C2SC(CC(=O)O)C(=O)N2c2ccc(O)cc2)ccc1O (centres unmarked) [TP-C1-11] | 37.56±1.85 | – | –
Cn1c(=O)[nH]c(=O)c2c1nc(NCCCO)n2CC(O)COc1ccccc1 (centres unmarked) [TP-C2-2] | 51.41±2.9 | – | –
CCCCc1ccc(NC(=S)C2=C(NCc3ccc4c(c3)OCO4)CC(C)(C)CC2=O)cc1 [TP-C1-31] | 2.9±8.41 | – | Tie-2 inhibitory activity in words (active / inactive) [1]: inactive
Cc1cccc(-n2c(CCN3C(=O)c4ccccc4C3=O)nc3ccccc3c2=O)c1 [TP-C1-10] | 44.25±1.05 | – | –
COc1cc(C(=O)n2c(SCc3ccc(F)cc3)nc3ccccc32)cc(OC)c1OC [TP-C1-22] | -46.75±1.97 | – | –
O=C(OCC(=O)c1ccccc1Cl)c1ccc2c(c1)-c1ccccc1C2=O [TP-C2-21] | 75.19±7.09 | – | –
O=C(Nc1ccc(NC(=S)NC(=O)c2cccc3ccccc23)cc1)c1cccs1 [TP-C2-15] | 72.64±14.95 | – | –
O=c1[nH]c(-c2ccc(OCc3ccccc3F)cc2)nc2ccccc12 [TP-C1-40] | 2.81±1.73 | – | –
O=C(CC1c2ccccc2Oc2ccccc21)Nc1ccccn1 [TP-C1-30] | 11.44±0.49 | – | –
COc1ccc(C(CC(=O)c2ccccc2)CC(=O)c2ccccc2)cc1OC [TP-C2-23] | 47.13±8.4 | – | –
O=c1cc(-c2ccccc2)c2ccc(OCc3cccc(C(F)(F)F)c3)cc2o1 [TP-C1-18] | 39.7±2.94 | – | Tie-2 inhibitory activity in words (active / inactive) [1]: inactive
